Data as given in patent US8491891B2, “Human beta-glucuronidase mutants with elevated enzymatic activity under physiological conditions and method for identifying such” (Academia Sinica, priority 2008, dated 2013).

Tests used:
[1] = Intratumoral concentrations of CPT-11, SN-38 and SN-38G after CPT-11 treatment (SPE-HPLC)
Protocol: Tumors were collected 2, 8 and 24 h after CPT treatment, immediately dispersed in ice-cold acidic methanol (methanol: water: perchloric acid=20:20:1), and homogenized 60 sec on an Ultraturax tissue homogenizer at 20,000 rpm. The samples were clarified by centrifugation at 15,000 g for 5 min at 4° C. Supernatants were diluted with 0.1 M KH2PO4 and then separated by SPE-HPLC on a μBondapack column with 27% acetonitrile in 0.1 M potassium phosphate buffer pH=2.6. […] These three analytes were quantified by comparison with standard curves generated with analyte concentrations ranging from 2.0 pg to 200 ng.

EJ tumor xenografts = assay: Anti-tumor effect of CPT-11 on EJ xenografts; format: in vivo, Beige-SCID mice; details: EJ tumors, dose of 10 mg/kg, i.v. on two consecutive days
Protocol: (§1) Three to four month old Beige-SCID female mice were used in this study. The mice were maintained under SPF conditions and were fed a standard laboratory diet with free access to food and water, under artificial circadian rhythm. EJ or EJ/mβG cells were injected into the mice subcutaneously in their right flank to form tumor xenografts.

EJ/mβG tumor xenografts = assay: Anti-tumor effect of CPT-11 on EJ/mβG xenografts; format: in vivo, Beige-SCID mice; details: EJ/mβG tumors, dose of 10 mg/kg, i.v. on two consecutive days
Protocol: as §1

[2] = Serum concentrations of CPT-11, SN-38 and SN-38G after CPT-11 administration
[3] = test system: EJ human bladder carcinoma cells; assay: Sensitivity of EJ cells to CPT-11, SN-38, SN-38G (3H-thymidine incorporation); details: read-out: IC50 (cytotoxicity), 24 h exposure, pH not stated
EJ/mβG cells = assay: Sensitivity of EJ/mβG cells to CPT-11, SN-38, SN-38G (3H-thymidine incorporation); details: read-out: IC50 (cytotoxicity); EJ/mβG cells, 24 h exposure, pH not stated
[4] = Relative activity of membrane-tethered human β-glucuronidase variants on 3T3 cells by flow cytometry (FL4/FL1); format: cell-based; details: membrane-tethered enzyme, pH 7.0, substrate ELF97 β-D-glucuronide
Protocol: The 3T3 cell libraries mentioned above were screened by FACS analysis for cells that express human β-glucuronidase variants with elevated enzymatic activity. 10^7 3T3 cells expressing membrane-bound human β-glucuronidase variants were washed and suspended in 0.4 ml BSA/HBSS (5.4 mM KCl, 0.3 mM Na2HPO4, 0.4 mM KH2PO4, 4.2 mM NaHCO3, 1.3 mM CaCl2, 0.5 mM MgCl2, 0.6 mM MgSO4, 137 mM NaCl, 5.6 mM D-glucose, pH 7.4) containing 0.5% bovine serum albumin (BSA) and 20 μg/ml 7G8-FITC for 30 min at 4° C. Cells were then washed and incubated with 25, 50 or 100 μM ELF97 β-D-glucuronide at defined pH values in 50 mM Bis-Tris, 25 mM glucose, 85.6 mM NaCl, 5.4 mM KCl, 0.6 mM MgSO4, 1.3 mM CaCl2) at 37° C. for 10 min. The cells were washed with ice-cold 0.5% BSA/HBSS and suspended in 0.5% BSA/HBSS containing 5 μg/ml propidium iodide (Sigma). Cells were then sorted on a FACSVantage DiVa (Becton, Dickinson and Company, Franklin Lakes, N.J.) equipped with an Enterprise IIC argon laser for dual excitation at 488 and 351-364 nm. Dead cells (propidium iodide positive, high FL3 fluorescence) were gated out before 7G8-FITC immunofluorescence was detected at excitation/emission wavelengths of 488/515 nm (FL1) and ELF97 was detected at excitation/emission wavelengths of 351/530 nm (FL4). […] The sorted cells were cultured for 4-10 days for sequential rounds of cell sorting or RNA extraction. Flow cytometer data was analyzed using Flowjo (Tree star, Ashland, Oreg.).
Independent 3T3 clones (5×10^7) in library EP2 mentioned above were immunofluorescence stained with 7G8-FITC and reacted with ELF97 β-D-glucuronide at pH 7.0. Sixteen individual cell clones were isolated after three rounds of sorting and the human β-glucuronidase genes were sequenced. […] Table 1 below lists amino acid substitutions in five exemplary variants and their relative enzymatic activities.

[5] = Kinetic values (Km, kcat) of soluble recombinant human β-glucuronidase and variants; format: biochemical
Protocol: Recombinant His-tagged wild-type human β-glucuronidase and its variants (soluble) were produced in and purified from stable 3T3 fibroblast lines, following the method described above also the method described in Wu et al., Biotechnol Appl Biochem 40:167-172 (2004).
The pH-dependent enzyme activities of the above-mentioned recombinant human beta-glucuronidase and variants were measured in triplicate with 0.1 mM ELF97 β-D-glucuronide at 37° C. for 30 minutes at a defined pH ranging from 3-10 in a beta-glucuronidase reaction buffer (50 mM Bis-Tris, 50 mM triethanol amine, 100 mM acetic acid, 0.1% BSA). The reaction was quenched by adding an equal volume of a stop buffer (2 M Tris-HCl, 0.8 M sodium bicarbonate, pH 8). The fluorescence of ELF97 was measured in a Gemini EM microplate spectrofluorometer (Molecular Device, Sunnyvale, Calif.) at excitation/emission wavelengths of 355/555 nm. Kinetic values for human beta-glucuronidase substrate hydrolysis were determined by diluting ELF97 β-D-glucuronide (2 mM) in a pH 4.5 or pH 7.0 beta-glucuronidase reaction buffer 1:1 with defined concentrations of human beta-glucuronidase in 200 μl. Fluorescence was immediately measured under thermal control at 37° C. for 8-10 min. The measurement was repeated using the same amount of enzyme at different substrate concentrations in an optimal range. The acquired readings were converted to product concentration based on preestablished standard curves. Double reciprocal plots were used to determine Km and kcat. Kinetic assays were performed at least 3 times and mean values were calculated. The stability of recombinant human beta-glucuronidase variants was carried out by measuring their enzymatic activity at time 0 and again after incubating 5 μg purified enzymes in PBS (containing 0.5 mg/ml BSA) at 37° C. for 14 days. The enzymatic activities of the human beta-glucuronidase variants were measured in triplicate with 0.5 mM 4-methylumbelliferyl β-D-glucuronide at 37° C. for 15 minutes at pH 7.0 in β-glucuronidase reaction buffer. The reaction was terminated by adding an equal volume of a stop buffer (1 M glycine, 0.5 M sodium bicarbonate, pH 11) and the fluorescence was measured at excitation/emission wavelengths of 355/460 nm in a microplate spectrofluorometer.

[6] = test system: EJ human bladder cancer cells; assay: Prodrug activation of HAMG by enzyme, 3H-thymidine incorporation; format: cell-based; details: 10 μM HAMG
Protocol: (§2) The prodrug activation activity of the human beta-glucuronidase variants was determined as follows. EJ human bladder cancer cells were incubated with graded concentrations (see FIGS. 3B and 3C) of human β-glucuronidase variants in RPMI (pH 6.8) containing either 10 μM HAMG or 100 nM SN-38G for 24 hours. The cells were further incubated for 24 hours in fresh medium before incorporation of ^3H-thymidine into cellular DNA was measured following the procedure described below.
(§3) Purified recombinant human beta-glucuronidase and its variants with defined concentrations were mixed with 10 μM HAMG or 100 nM SN-38G and the mixture was added to 5000 EJ human bladder cancer cells in 200 μl complete medium at pH 6.8 for 24 h. The cells were washed and incubated in fresh medium for 24 h and then pulsed for 16 h with ^3H-thymidine (1 μCi/well). The cells were harvested and the radioactivity was measured in a TopCount Microplate Scintillation Counter (Packard, Meriden, Conn.). Results are expressed as percent inhibition of ^3H-thymidine incorporation into cellular DNA in comparison to untreated cells.

[7] = test system: EJ human bladder cancer cells; assay: Prodrug activation of SN-38G by enzyme, 3H-thymidine incorporation; format: cell-based; details: 100 nM SN-38G
Protocol: as §2, §3

[8] = Beta-glucuronidase activity of fusion proteins at pH 7.0; format: biochemical; details: pH 7.0, 0.5 mM substrate, 30 minutes, 37° C.
Protocol: Next, the beta-glucuronidase activity of the fusion proteins was measured by adding 0.5 mM 4-methylumbelliferyl β-D-glucuronide in a beta-glucuronidase reaction buffer (50 mM Bis-Tris, 50 mM triethanol amine, 100 mM acetic acid, 100 ng/ml bovine serum albumin, pH 7.0) for 30 minutes at 37° C. The reaction was terminated by adding an equal volume of stop buffer (1 M glycine, 0.5 M sodium bicarbonate, pH 11). The fluorescence of 4-MU was measured at excitation/emission wavelengths of 355/460 nm in a Gemini EM microplate spectrofluorometer (Molecular Device, Sunnyvale, Calif.). […] See also FIG. 9.

[9] = 24 h after CPT-11 10 mg/kg i.v.

CCc1c2c(nc3ccc(OC(=O)N4CCC(N5CCCCC5)CC4)cc13)-c1cc3c(c(=O)n1C2)COC(=O)[C@]3(O)CC [CPT-11]
Intratumoral concentrations in EJ versus EJ/mβG tumors ([1]; 2, 8 and 24 h): identical | Concentration in EJ xenografts ([1]; 2 h after CPT-11 10 mg/kg i.v.): 1350 ± 200 ng drug/g tumor | Concentration in EJ/mβG xenografts ([1]; 2 h after CPT-11 10 mg/kg i.v.): 1500 ± 230 ng drug/g tumor | Concentration in EJ xenografts ([1]; 8 h after CPT-11 10 mg/kg i.v.): 87 ± 17 ng drug/g tumor | Concentration in EJ/mβG xenografts ([1]; 8 h after CPT-11 10 mg/kg i.v.): 77 ± 178 ng drug/g tumor | Concentration in EJ xenografts [1, 9]: 0.58 ± 0.09 ng drug/g tumor | Concentration in EJ/mβG xenografts [1, 9]: 0.63 ± 0.11 ng drug/g tumor | Delay of tumor growth (EJ tumor xenografts): did not significantly delay | Delay of tumor growth (EJ/mβG tumor xenografts): significantly delayed | Serum levels in mice bearing EJ versus EJ/mβG tumor ([2]; 2 h after CPT-11 administration): similar | Serum concentrations in mice bearing EJ versus EJ/mβG tumor ([2]; 8 h or 24 h after CPT-11 administration): no significant differences | IC50 [3]: ~2100 nM | IC50 (EJ/mβG cells): ~2100 nM

B1: S2: human beta-glucuronidase variant V159M, T545S, E595L, T599L, SEQ ID NO: 8 (protein)
chain: AAQPALQGGMLYPQESPSRECKELDGLWSFRADFSDNRRRGFEEQWYRRPLWESGPTVDMPVPSSFNDISQDWRLRHFVGWVWYEREVILPERWTQDLRTRVVLRIGSAHSYAIVWVNGVDTLEHEGGYLPFEADISNLVQMGPLPSRLRITIAINNTLTPTTLPPGTIQYLTDTSKYPKGYFVQNTYFDFFNYAGLQRSVLLYTTPTTYIDDITVTTSVEQDSGLVNYQISVKGSNLFKLEVRLLDAENKVVANGTGTQGQLKVPGVSLWWPYLMHERPAYLYSLEVQLTAQTSLGPVSDFYTLPVGIRTVAVTKSQFLINGKPFYFHGVNKHEDADIRGKGFDWPLLVKDFNLLRWLGANAFRTSHYPYAEEVMQMCDRYGIVVIDECPGVGLALPQFFNNVSLHHHMQVMEEVVRRDKNHPAVVMWSVANEPASHLESAGYYLKMVIAHTKSLDPSRPVTFVSNSNYAADKGAPYVDVICLNSYYSWYHDYGHLELIQLQLATQFENWYKKYQKPIIQSEYGAESIAGFHQDPPLMFTEEYQKSLLEQYHLGLDQKRRKYVVGELIWNFADFMTLQSPLRVLGNKKGIFTRQRQPKSAAFLLRERYWKIANETRYPHSVAKSQCLENSPFTSVD
modifications: Laboratory generated variant, S2, based upon the human beta-glucuronidase
Relative activity (FL4/FL1 normalized to wild-type human β-glucuronidase) [4]: 65 | Km ([5]; pH 4.5, 37° C.): 8.1 ± 0.8 µM | kcat ([5]; pH 4.5, 37° C.): 107 ± 7 s⁻¹ | Km ([5]; pH 7.0, 37° C.): 35 ± 3 µM | kcat ([5]; pH 7.0, 37° C.): 42 ± 4 s⁻¹ | kcat/Km at pH 7.0, fold greater than kcat/Km of wild type at pH 4.5 ([5]; variant at pH 7.0 vs wild type at pH 4.5): about 2 fold | Fold more effective than wild type (HAMG activation) ([6]; pH 6.8): 9 fold | EC50 of enzyme for killing of EJ cells with HAMG ([6]; pH 6.8, 24 h): 2.7 µg/mL | Fold improvement in prodrug activation over wild type (SN-38G) ([7]; pH 6.8): 11 fold | EC50 of enzyme for killing of EJ cells with SN-38G ([7]; pH 6.8, 24 h): 0.0084 µg/mL | Enzymatic activity compared with wild-type hβG [8]: significantly greater
